Patent US9302999B2, “Substituted triazoles as herbicides” (E. I. DU PONT DE NEMOURS AND COMPANY, priority 2012, dated 2016)

Key:
Type in all cases: in vivo
[1] = tested on: chamomile (scentless chamomile, Matricaria inodora); test: Test D pre-/postemergence: chamomile
How it was run: (§1)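 Visual ratings from 0 (no effect) to 100 (complete control) were made 14–21 days after treatment, relative to controls. Applications were preemergence to seeds in silt loam, or postemergence to 2–18 cm (1–4 leaf) plants in peat-based medium. Compounds were formulated in a surfactant-containing non-phytotoxic solvent.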

[2] = tested on: ducksalad (Heteranthera limosa); test: Test C flooded paddy test: ducksalad; settings: Heteranthera limosa, scale 0 to 100 (0 no effect, 100 complete control), read-out: Plant response rating, Ducksalad
How it was run: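 Rating: visual, 0–100 (100 = complete control), versus untreated controls after 13 to 15 greenhouse days. Treatment went into paddy water held at 3 cm over the soil, on plants grown to two leaves.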

[3] = tested on: bromegrass, downy (downy bromegrass, Bromus tectorum); test: Test C pre-/postemergence: bromegrass, downy
How it was run: (§2)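 Visual injury scored 0–100 (100 = complete control) against untreated controls after 13–15 greenhouse days. Surfactant-containing solvent formulations applied either to soil after sowing (loam/sand) or over 1- to 4-leaf plants, 2–18 cm tall.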

[4] = tested on: barley, spring (spring barley, Hordeum vulgare); test: Test D pre-/postemergence: barley, spring
How it was run: as §1

[5] = tested on: woolly cupgrass (Eriochloa villosa); test: Test C pre-/postemergence: woolly cupgrass
How it was run: as §2

[6] = tested on: windgrass (Apera spica-venti); test: Test D pre-/postemergence: windgrass
How it was run: as §1

[7] = tested on: oilseed rape (Brassica napus); test: Test D pre-/postemergence: oilseed rape
How it was run: as §1

[8] = tested on: deadnettle (henbit deadnettle, Lamium amplexicaule); test: Test C postemergence: deadnettle
How it was run: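 Visual ratings of 0 (no effect) to 100 (complete control) were made against controls 13-15 days after a postemergence spray, with plants kept in a greenhouse. Plants were 2-18 cm tall (1- to 4-leaf stage) in Redi-Earth peat/vermiculite medium at treatment.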

[9] = Postemergence, 31 g ai/ha, scale 0 to 100 (0 no effect, 100 complete control)
[10] = Postemergence, 62 g ai/ha, scale 0 to 100 (0 no effect, 100 complete control)
[11] = Postemergence, 125 g ai/ha, scale 0 to 100, 0 no effect, 100 complete control
[12] = Postemergence, 250 g ai/ha, scale 0 to 100 (0 no effect, 100 complete control)
[13] = Postemergence, 16 g ai/ha, scale 0 to 100
[14] = Preemergence, 16 g ai/ha, scale 0 to 100 (0 no effect, 100 complete control)
[15] = Preemergence, 31 g ai/ha, scale 0 to 100 (0 no effect, 100 complete control)
[16] = Preemergence, 62 g ai/ha, scale 0 to 100
[17] = Preemergence, 125 g ai/ha, scale 0 to 100
[18] = Preemergence, 250 g ai/ha, scale 0 to 100
[19] = Postemergence, 250 g ai/ha, scale 0 to 100
[20] = Preemergence, 125 g ai/ha, scale 0 to 100, 0 no effect, 100 complete control
[21] = Preemergence, 250 g ai/ha, scale 0 to 100, 0 no effect, 100 complete control
[22] = 31 g ai/ha, scale 0 to 100 (0 no effect, 100 complete control)
[23] = 62 g ai/ha, scale 0 to 100 (0 no effect, 100 complete control)
[24] = 125 g ai/ha, scale 0 to 100, 0 no effect, 100 complete control
[25] = Preemergence, 31 g ai/ha, scale 0 (no effect) to 100 (complete control)
[26] = Preemergence, 62 g ai/ha, scale of 0 to 100, 0 is no effect, 100 is complete control

SMILES: Cc1nn(-c2ccc(F)cc2)nc1Cc1ccnc(C(F)(F)F)c1 [Compound 16, 4-[[2-(4-fluorophenyl)-5-methyl-2H-1,2,3-triazol-4-yl]methyl]-2-(trifluoromethyl)pyridine]
- Plant response rating: Chamomile [1, 9]: 0
- Plant response rating: Chamomile [1, 10]: 0
- Plant response rating: Chamomile [1, 11]: 5
- Plant response rating: Chamomile [1, 12]: 10
- Plant response rating, Chamomile [1, 13]: 0
- Plant response rating, Chamomile [1, 14]: 0
- Plant response rating, Chamomile [1, 15]: 0
- Plant response rating, Chamomile [1, 16]: 25
- Plant response rating, Chamomile [1, 17]: 70
- Plant response rating, Chamomile [1, 18]: 100
- pest or weed control at 62 g/ha ([2]; Flood (flooded paddy test), 62 g ai/ha, visual rating after 13 to 15 days): 85%
- pest or weed control at 125 g/ha ([2]; Flood (flooded paddy test), 125 g ai/ha, visual rating after 13 to 15 days): 95%
- pest or weed control at 250 g/ha ([2]; Flood (flooded paddy test), 250 g ai/ha, visual rating after 13 to 15 days): 100%
- pest or weed control at 31 g/ha ([2]; Flood, 31 g ai/ha): 70%
- Plant response rating, Bromegrass, Downy [3, 9]: 15
- Plant response rating, Bromegrass, Downy [3, 10]: 15
- Plant response rating, Bromegrass, Downy [3, 11]: 25
- Plant response rating, Bromegrass, Downy [3, 19]: 25
- Plant response rating, Bromegrass, Downy ([3]; Preemergence, 31 g ai/ha, scale of 0 to 100, 0 is no effect, 100 is complete control): 5
- Plant response rating, Bromegrass, Downy ([3]; Preemergence, 62 g ai/ha, scale 0 to 100, 0 no effect, 100 complete control): 10
- Plant response rating, Bromegrass, Downy [3, 20]: 50
- Plant response rating, Bromegrass, Downy [3, 21]: 100
- Plant response rating: Barley, Spring [4, 9]: 15
- Plant response rating: Barley, Spring [4, 10]: 15
- Plant response rating: Barley, Spring [4, 11]: 20
- Plant response rating: Barley, Spring [4, 12]: 35
- Plant response rating, Barley, Spring [4, 13]: 5
- Plant response rating, Barley, Spring [4, 14]: 0
- Plant response rating, Barley, Spring [4, 15]: 0
- Plant response rating, Barley, Spring [4, 16]: 5
- Plant response rating, Barley, Spring [4, 17]: 5
- Plant response rating, Barley, Spring [4, 18]: 5
- Plant response rating, Cupgrass, Woolly [5, 9]: 5
- Plant response rating, Cupgrass, Woolly [5, 10]: 20
- Plant response rating, Cupgrass, Woolly [5, 11]: 65
- Plant response rating, Cupgrass, Woolly [5, 19]: 75
- Plant response rating: Windgrass [6, 9]: 10
- Plant response rating: Windgrass [6, 10]: 20
- Plant response rating: Windgrass [6, 11]: 25
- Plant response rating: Windgrass [6, 12]: 35
- Plant response rating, Windgrass [6, 13]: 0
- Plant response rating, Windgrass [6, 14]: 20
- Plant response rating, Windgrass [6, 15]: 20
- Plant response rating, Windgrass [6, 16]: 90
- Plant response rating, Windgrass [6, 17]: 100
- Plant response rating, Windgrass [6, 18]: 100
- Plant response rating: Oilseed Rape [7, 9]: 70
- Plant response rating: Oilseed Rape [7, 10]: 95
- Plant response rating: Oilseed Rape [7, 11]: 100
- Plant response rating: Oilseed Rape [7, 12]: 100
- Plant response rating, Oilseed Rape [7, 13]: 40
- Plant response rating, Oilseed Rape [7, 14]: 0
- Plant response rating, Oilseed Rape [7, 15]: 0
- Plant response rating, Oilseed Rape [7, 16]: 50
- Plant response rating, Oilseed Rape [7, 17]: 50
- Plant response rating, Oilseed Rape [7, 18]: 100
- Plant response rating, Deadnettle [8, 22]: 50
- Plant response rating, Deadnettle [8, 23]: 98
- Plant response rating, Deadnettle [8, 24]: 98
- Plant response rating, Deadnettle ([8]; 250 g ai/ha, scale 0 to 100): 100

SMILES: CCOc1nn(-c2ccc(F)cc2)nc1Cc1ccnc(C(F)F)c1 [Compound 195]
- Plant response rating: Chamomile [1, 9]: 20
- Plant response rating: Chamomile [1, 10]: 20
- Plant response rating: Chamomile [1, 11]: 20
- Plant response rating: Chamomile [1, 12]: 50
- Plant response rating, Chamomile [1, 13]: 20
- Plant response rating, Chamomile [1, 14]: 0
- Plant response rating, Chamomile [1, 15]: 0
- Plant response rating, Chamomile [1, 16]: 100
- Plant response rating, Chamomile [1, 17]: 100
- Plant response rating, Chamomile [1, 18]: 100
- Plant response rating, Bromegrass, Downy [3, 9]: 15
- Plant response rating, Bromegrass, Downy [3, 10]: 30
- Plant response rating, Bromegrass, Downy [3, 11]: 50
- Plant response rating, Bromegrass, Downy [3, 19]: 60
- Plant response rating, Bromegrass, Downy [3, 25]: 15
- Plant response rating, Bromegrass, Downy [3, 26]: 45
- Plant response rating, Bromegrass, Downy [3, 20]: 85
- Plant response rating, Bromegrass, Downy [3, 21]: 90
- Plant response rating: Barley, Spring [4, 9]: 15
- Plant response rating: Barley, Spring [4, 10]: 20
- Plant response rating: Barley, Spring [4, 11]: 30
- Plant response rating: Barley, Spring [4, 12]: 40
- Plant response rating, Barley, Spring [4, 13]: 10
- Plant response rating, Barley, Spring [4, 14]: 0
- Plant response rating, Barley, Spring [4, 15]: 0
- Plant response rating, Barley, Spring [4, 16]: 0
- Plant response rating, Barley, Spring [4, 17]: 0
- Plant response rating, Barley, Spring [4, 18]: 30
- Plant response rating, Cupgrass, Woolly [5, 9]: 50
- Plant response rating, Cupgrass, Woolly [5, 10]: 65
- Plant response rating, Cupgrass, Woolly [5, 11]: 75
- Plant response rating, Cupgrass, Woolly [5, 19]: 75
- Plant response rating, Cupgrass, Woolly [5, 25]: 20
- Plant response rating, Cupgrass, Woolly [5, 26]: 95
- Plant response rating, Cupgrass, Woolly [5, 20]: 95
- Plant response rating, Cupgrass, Woolly [5, 21]: 98
- Plant response rating: Windgrass [6, 10]: 30
- Plant response rating: Windgrass [6, 11]: 70
- Plant response rating: Windgrass [6, 12]: 80
- Plant response rating, Windgrass [6, 13]: 10
- Plant response rating, Windgrass ([6]; Postemergence, 31 g ai/ha, scale 0 to 100): 15
- Plant response rating, Windgrass [6, 14]: 25
- Plant response rating, Windgrass [6, 15]: 40
- Plant response rating, Windgrass [6, 16]: 75
- Plant response rating, Windgrass [6, 17]: 100
- Plant response rating, Windgrass [6, 18]: 100
- Plant response rating: Oilseed Rape [7, 9]: 85
- Plant response rating: Oilseed Rape [7, 10]: 95
- Plant response rating: Oilseed Rape [7, 11]: 100
- Plant response rating: Oilseed Rape [7, 12]: 100
- Plant response rating, Oilseed Rape [7, 13]: 70
- Plant response rating, Oilseed Rape [7, 14]: 0
- Plant response rating, Oilseed Rape [7, 15]: 0
- Plant response rating, Oilseed Rape [7, 16]: 0
- Plant response rating, Oilseed Rape [7, 17]: 10
- Plant response rating, Oilseed Rape [7, 18]: 20
- Plant response rating, Deadnettle [8, 22]: 100
- Plant response rating, Deadnettle [8, 23]: 100
- Plant response rating, Deadnettle [8, 24]: 100
- Plant response rating, Deadnettle ([8]; 250 g ai/ha, scale 0 to 100): 100
